PubChem BioAssay (NCI)
Several values for one entry are separate records, joined by “and”; a condition that tells them apart may be missing. Equal entries are not always repeated.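 Method: 48-hour compound exposure of cells in 96-well plates, five concentrations, linear interpolation of endpoints. Abbreviation: GI50, concentration required for 50% inhibition of growth. TGI marks complete inhibition of growth.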

What was measured:
Assay in all cases: inhibition of tumour cell growth, NCI panel, 48 h
[1] = system: EKVX NSCLC
[2] = system: UO-31 renal
[3] = system: SK-MEL-28 melanoma
[4] = system: HCC-2998 colon
[5] = system: NCI-H23 lung
[6] = system: HCT-15 colon
[7] = system: TK-10 renal
[8] = system: SF-295 CNS
[9] = system: SNB-75 CNS
[10] = system: LOX IMVI melanoma
[11] = system: SNB-19 CNS
[12] = system: BT-549 breast
[13] = system: SN12C renal
[14] = system: CCRF-CEM leukemia
[15] = system: COLO 205 colon
[16] = system: HL-60(TB) leukemia
[17] = system: SK-MEL-2 melanoma
[18] = system: MDA-MB-435
[19] = system: K-562 leukemia
[20] = system: MALME-3M melanoma
[21] = system: A498 renal
[22] = system: ACHN renal
[23] = system: SF-268 CNS
[24] = system: KM12 colon
[25] = system: MDA-N
[26] = system: SR leukemia
[27] = system: SK-OV-3 ovarian
[28] = system: NCI-H226 lung
[29] = system: CAKI-1 renal
[30] = system: SW-620 colon
[31] = system: NCI-H522 lung
[32] = system: DU-145 prostate
[33] = system: IGROV1 ovarian
[34] = system: OVCAR-5 ovarian
[35] = system: UACC-62 melanoma
[36] = system: HCT-116 colon
[37] = system: U251 CNS
[38] = system: SK-MEL-5 melanoma
[39] = system: SF-539 CNS
[40] = system: MDA-MB-231 breast
[41] = system: M14 melanoma
[42] = system: OVCAR-4 ovarian
[43] = system: RXF 393 renal
[44] = system: NCI/ADR-RES ovarian
[45] = system: MCF7 breast
[46] = system: HS 578T breast
[47] = system: MOLT-4 leukemia
[48] = system: RPMI-8226 leukemia
[49] = system: HT29 colon
[50] = system: PC-3 prostate
[51] = system: NCI-H460 lung
[52] = system: OVCAR-8 ovarian
[53] = system: OVCAR-3 ovarian
[54] = system: UACC-257 melanoma
[55] = system: 786-0 renal
[56] = system: HOP-62 NSCLC
[57] = system: T-47D breast
[58] = system: HOP-92 NSCLC

CC1=C(N2CC2)C(=O)C(CO)=C(N2CC2)C1=O
TGI [1]: 990 nM | GI50 [2]: 5.12 nM | TGI [2]: 23.1 nM and 31.9 nM | TGI [3]: 228 nM | GI50 [4]: 111 nM | TGI [4]: 511 nM and 290 nM | GI50 [5]: 1.43 nM | GI50 [6]: 20 nM | TGI [6]: 584 nM | GI50 [7]: 40.5 nM | TGI [7]: 721 nM and 309 nM | GI50 [8]: 32.9 nM | TGI [8]: 1060 nM | TGI [9]: 380 nM | GI50 [10]: 3.07 nM | TGI [10]: 22.6 nM and 187 nM | GI50 [11]: 2.5 nM | TGI [12]: 1950 nM | GI50 [13]: 5.7 nM | TGI [13]: 36.7 nM and 139 nM | GI50 [14]: 0.612 nM | GI50 [15]: 135 nM and 84 nM | TGI [15]: 290 nM and 230 nM | GI50 [16]: 0.498 nM | TGI [16]: 10.4 nM | TGI [17]: 98.8 nM and 585 nM | GI50 [18]: 38.6 nM and 39.3 nM | TGI [18]: 169 nM and 151 nM | TGI [19]: 1070 nM | TGI [20]: 116 nM | GI50 [21]: 15.8 nM | TGI [21]: 41 nM and 220 nM | GI50 [22]: 0.47 nM | GI50 [23]: 6.66 nM | GI50 [24]: 35.6 nM | TGI [24]: 337 nM | GI50 [25]: 28.4 nM and 25.9 nM | TGI [25]: 138 nM and 106 nM | TGI [26]: > 49000 nM | GI50 [27]: 186 nM | TGI [27]: 1810 nM | TGI [28]: 166 nM | GI50 [29]: 2.56 nM | TGI [29]: 412 nM and 243 nM | GI50 [30]: 3.68 nM | GI50 [31]: 11.2 nM | TGI [31]: 38.5 nM and 48.9 nM | TGI [32]: 1300 nM | GI50 [33]: 16.8 nM | TGI [33]: 70.3 nM and 51.8 nM | GI50 [34]: 194 nM | TGI [34]: 740 nM | TGI [35]: 146 nM and 230 nM | GI50 [36]: 7.28 nM | TGI [36]: 39.2 nM and 336 nM | TGI [37]: 285 nM | GI50 [38]: 39.9 nM | TGI [38]: 162 nM and 312 nM | GI50 [39]: 3.01 nM | TGI [39]: 19 nM and 59.3 nM | GI50 [40]: 140 nM | GI50 [41]: 16.2 nM | TGI [41]: 119 nM and 52.2 nM | GI50 [42]: 195 nM | TGI [42]: 904 nM and 587 nM | TGI [43]: 94.6 nM | GI50 [44]: 16.1 nM | TGI [44]: 67.1 nM and 18.2 nM | GI50 [45]: 4.87 nM | TGI [45]: 93.8 nM and 96.7 nM | GI50 [46]: 139 nM | TGI [46]: 352 nM and 1430 nM | TGI [47]: 5880 nM | GI50 [48]: 1.02 nM | TGI [48]: 14.7 nM and 82.4 nM | TGI [49]: 148 nM and 435 nM | GI50 [50]: 15.9 nM and < 21.3 nM | TGI [50]: 79.1 nM | GI50 [51]: 4.76 nM | TGI [51]: 1850 nM | GI50 [52]: 14.5 nM | TGI [52]: 70.1 nM and 79.9 nM | GI50 [53]: 37.7 nM | TGI [53]: 557 nM and 56.4 nM | GI50 [54]: 76.1 nM | TGI [54]: 527 nM and 2410 nM | GI50 [55]: 2.01 nM | TGI [55]: 19.9 nM and 133 nM | GI50 [56]: 21.9 nM | TGI [56]: 56.9 nM | TGI [57]: 529 nM | GI50 [58]: 18.3 nM and 18 nM | TGI [58]: 247 nM and 280 nM
